The compounds below were run on RS virus (assay: Evaluation of anti-RS viral activity (MTT assay kit; viable cell count of RS virus-infected Hep2 cells)). Conditions: additive amount 80 μM; Hep2 cells, RS virus 1 MOI, cultured 72 hours; DMSO control = 100.
Format: cell-based, RS virus (human respiratory syncytial virus)
Protocol: The aforementioned Compound 1 (No. 150) to Compound 22 (No. 306) were measured for anti-RS viral activity according to the protocol of MTT assay kit (CellTiter-Glo (registered trade name) Assay, Promega Corporation).
In a 96-well plate, Hep2 cells were seeded at 1×10^3 cells per well, and each of compounds in the amount shown in Table 7, and RS virus having an infectivity titer of 1 MOI were added, and cultured for 72 hours, and then a viable cell count was determined. As a control, a well containing DMSO at 25 μM (when the additive amount of the compound is 80 μM) or 5 μM (when the additive amount of the compound is 16 μM) in place of a compound was prepared.

| SMILES | Survival Rate (%) |
| --- | --- |
| COC(=O)[C@@H]1N[C@H](c2cccc([C@H]3N[C@@H](C(=O)OC)[C@H](c4ccccc4)[C@H]3[N+](=O)[O-])c2)[C@H]([N+](=O)[O-])[C@H]1c1ccccc1 [Compound 2, dimethyl 5,5′-(1,3-phenylene) (2R, 2′R, 3S, 3′S, 4R, 4′R, 5R, 5′R)-bis(4-nitro-3-phenylpyrrolidine-2-carboxylate)] | 332 |

Same assay, conditions: human respiratory syncytial virus, HEp-2, 72 h, read-out: Survival Rate (%)

| SMILES | viability at 16 µM [%] | viability at 80 µM [%] |
| --- | --- | --- |
| COc1ccc(NCCNc2ccc(OC)cc2)cc1 [Compound 6, N1,N2-bis(4-methoxyphenyl)ethane-1,2-diamine] | 472 |  |
| c1ccc(-c2nnc(-c3ccccc3)o2)cc1 [Compound 21, 2,5-diphenyl-1,3,4-oxadiazole] |  | 248 |

Same assay, conditions: human respiratory syncytial virus, HEp-2; additive amount 16 μM; Hep2 cells, RS virus 1 MOI, cultured 72 hours; DMSO control = 100; read-out: Survival Rate (%)

| SMILES | viability at 16 µM [%] |
| --- | --- |
| c1ccc(NCCNc2ccccc2)cc1 [Compound 5, N1,N2-diphenylethane-1,2-diamine] | 471 |
| CC(C)(C)OC(=O)[C@H]1N[C@H](c2ccccc2)[C@@]2(C(=O)Nc3ccccc32)[C@@H]1c1ccc(Br)cc1 [Compound 12, tert-butyl(2′R,3R,4′S,5′S)-4′-(4-bromophenyl)-2-oxo-2′-phenylspiro[indoline-3,3′-pyrrolidine]-5′-carboxylate] | 475 |
| CCOC(=O)C1=CN2C(=O)CCN2[C@@H]1C1CCCCC1 [Compound 19, ethyl(R)-1-cyclohexyl-5-oxo-6,7-dihydro-1H,5H-pyrazolo[1,2-a]pyrazole-2-carboxylate] | 209 |
| Cc1ccc([C@@H]2[C@@H](C(=O)OC(C)(C)C)N[C@H](c3ccccc3)[C@@]23C(=O)Nc2ccccc23)cc1 [Compound 13, tert-butyl(2′R,3R,4′S,5′S)-2-oxo-2′-phenyl-4′-(p-tolyl)spiro[indoline-3,3′-pyrrolidine]-5′-carboxylate] | 406 |
| Clc1ccc(NCCNc2ccc(Cl)cc2)cc1 [Compound 7, N1,N2-bis(4-chlorophenyl)ethane-1,2-diamine] | 405 |
| O=P12c3ccccc3CN1[C@H](CNc1ccccc1)CCN2c1ccccc1 (stereo partly drawn) [Compound 8, (4S,11R)-1-phenyl-4-((phenylamino)methyl)-1,2,3,4,6-pentahydrobenzo[3,4][1,2]azaphosphoro [1,2-a][1,3,2]diazaphosphinine 11-oxide] | 815 |
| Cc1ccc2c(c1)[C@](C[N+](=O)[O-])(c1c[nH]c3c(C)cccc13)C(=O)N2C [Compound 10, (S)-1,5-dimethyl-3-(7-methyl-1H-indole-3-yl)-3-(nitromethyl)indoline-2-one] | 294 |
| O=C1CCCCCC1C(Nc1ccc(OC(F)(F)F)cc1)c1ccccc1 (stereo not drawn) [Compound 16, 2-(phenyl((4-(trifluoromethoxy)phenyl)amino)methyl)cycloheptane-1-one] | 294 |
| C=CCN1C(=O)/C(=C/[N+](=O)[O-])c2ccccc21 [Compound 14, (E)-1-allyl-3-(nitromethylene)indoline-2-one] | 409 |
| Oc1c(Br)cc(Br)cc1/C=N/[C@H](c1ccccc1)[C@@H](c1ccccc1)N1Cc2ccccc2C1 [Compound 15, 2,4-dibromo-6-((E)-(((1R,2R)-2-(isoindoline-2-yl)-1,2-diphenylethyl)imino)methyl)phenol] | 393 |
| c1ccc(CN2[C@H](c3cccc([C@@H]4N[C@@H](c5ccccc5)[C@H](c5ccccc5)N4Cc4ccccc4)n3)N[C@@H](c3ccccc3)[C@@H]2c2ccccc2)cc1 [Compound 11, 2,6-bis((2R,4S,5S)-1-benzyl-4,5-diphenylimidazolidine-2-yl)pyridine] | 274 |

Same assay, conditions: human respiratory syncytial virus, HEp-2; additive amount 80 μM; Hep2 cells, RS virus 1 MOI, cultured 72 hours; DMSO control = 100; read-out: Survival Rate (%)

| SMILES | viability at 80 µM [%] |
| --- | --- |
| CCOC(=O)C1=CN2C(=O)CCN2[C@@H]1c1ccc(OC)cc1 [Compound 18, ethyl(R)-1-(4-methoxyphenyl)-5-oxo-6,7-dihydro-1H,5H-pyrazolo[1,2-a]pyrazole-2-carboxylate] | 349 |
| CCOC(=O)C1=CN2C(=O)CC(C)(C)N2C1c1ccccc1 (stereo not drawn) [Compound 22, ethyl7,7-dimethyl-5-oxo-1-phenyl-6,7-dihydro-1H,5H-pyrazolo[1,2-a]pyrazole-2-carboxyl ate] | 339 |
| COC(=O)[C@H]1N[C@@H](c2ccccc2)[C@@H]([N+](=O)[O-])[C@@H]1c1ccccc1 [Compound 20, methyl(2S,3R,4S,5S)-4-nitro-3,5-diphenylpyrrolidine-2-carboxylate] | 344 |
| N[C@@H](C(=O)O)c1cccc2ccccc12 [Compound 4, (R)-2-amino-2-(naphthalene-1-yl) acetic acid] | 450 |
| COC(=O)C1=C(c2ccccc2)C(c2ccccc2)(C(C#N)C#N)C(C(=O)OC)=C1O (stereo not drawn) [Compound 1, dimethyl 5-(dicyanomethyl)-2-hydroxy-4,5-diphenylcyclopenta-1,3-diene-1,3-dic arboxylate] | 359 |
| CCOC(=O)C1=CN2C(=O)CCN2[C@@H]1c1cccc(Cl)c1 [Compound 17, ethyl(R)-1-(3-chlorophenyl)-5-oxo-6,7-dihydro-1H,5H-pyrazolo[1,2-a]pyrazole-2-carboxylate] | 264 |
| CN1C(=O)[C@@](C[N+](=O)[O-])(c2c[nH]c3ccccc23)c2ccccc21 [Compound 9, (S)-3-(1H-indole-3-yl)-1-methyl-3-(nitromethyl)indoline-2-one] | 276 |

From patent publication US20170368015A1, “NOVEL COMPOUND AND ANTIVIRAL AGENT CONTAINING SAME AS ACTIVE INGREDIENT” (NATIONAL UNIVERSITY CORPORATION CHIBA UNIVERSITY, priority 2014, published 2017)
